Patent US20190062709A1, “METHODS AND COMPOSITIONS FOR MAINTENANCE OF HEMATOPOIETIC STEM CELLS WITH PRESERVATION OF SELF-RENEWAL CAPACITY” (The Trustees of Columbia University in the City of New York, priority 2017, published 2019)
Where two headings read alike, the source gives them in different places.

Key:
[1] = test system: HSCs; experiment: Calcium concentration of HSCs treated with metabolic inhibitors; assay type: cell-based, mouse
[2] = 37° C., assumed based on previous studies; read-out: Indo-1 dissociation constant (Kd); cited from earlier work
[3] = test system: HSCs; experiment: Competitive transplantation of cultured HSCs into irradiated recipient mice (donor chimerism); assay type: in vivo, mouse; conditions: 10% of culture transplanted
Procedure: Long term LT-HSCs cultures were carried out using Ca^2+-free DMEM (U.S. Biologicals) reconstituted with 4.5 g/L glucose and 1.1 g/L sodium bicarbonate at pH 7.4. Complete media was prepared with Ca^2+-free DMEM supplemented with 1× StemPro34 SFM (Invitrogen), 10 mM HEPES, 200 ng/mL of recombinant m-SCF and 30 ng/mL m-TPO (Peptrotech, Rocky Hill, N.J.). Media of various calcium concentrations was prepared as serial dilutions from stock complete media at 2 mM. Cultures were initiated with 3000-4000 purified HSCs (LSK+CD48−F1t3−CD150+) and cultured in round bottom 96 well plates with 150 uL of media in 5% O2 at 37° C. Half of the media volume was changed every 3 days and split 1:2 every 7 days. Cultures were counted at the time of phenotypic flow cytometric percentage analysis to determine phenotypic HSC counts at the end of culture. Based on calculations, HSC yields were expressed as phenotypic HSC at the end of culture divided by phenotypic HSC count at the start of culture.
All transplant experiments were initiated with LT-HSC cultures consisting of CD45.1 donor HSCs. […]
To test HSC function, irradiated recipient mice were competitively transplanted with 10% of the cultures, either at initiation or after 2 weeks of culture, and analyzed 15 weeks after transplantation. […] Donor contribution correlated with calculated phenotypic HSC cell dose transplanted (FIG. 2D). […]

[4] = molecular target: T1, murine AHR (Mus musculus, UniProt P30561); conditions: literature report; cited from earlier work
T1 sequence (P30561 10-848): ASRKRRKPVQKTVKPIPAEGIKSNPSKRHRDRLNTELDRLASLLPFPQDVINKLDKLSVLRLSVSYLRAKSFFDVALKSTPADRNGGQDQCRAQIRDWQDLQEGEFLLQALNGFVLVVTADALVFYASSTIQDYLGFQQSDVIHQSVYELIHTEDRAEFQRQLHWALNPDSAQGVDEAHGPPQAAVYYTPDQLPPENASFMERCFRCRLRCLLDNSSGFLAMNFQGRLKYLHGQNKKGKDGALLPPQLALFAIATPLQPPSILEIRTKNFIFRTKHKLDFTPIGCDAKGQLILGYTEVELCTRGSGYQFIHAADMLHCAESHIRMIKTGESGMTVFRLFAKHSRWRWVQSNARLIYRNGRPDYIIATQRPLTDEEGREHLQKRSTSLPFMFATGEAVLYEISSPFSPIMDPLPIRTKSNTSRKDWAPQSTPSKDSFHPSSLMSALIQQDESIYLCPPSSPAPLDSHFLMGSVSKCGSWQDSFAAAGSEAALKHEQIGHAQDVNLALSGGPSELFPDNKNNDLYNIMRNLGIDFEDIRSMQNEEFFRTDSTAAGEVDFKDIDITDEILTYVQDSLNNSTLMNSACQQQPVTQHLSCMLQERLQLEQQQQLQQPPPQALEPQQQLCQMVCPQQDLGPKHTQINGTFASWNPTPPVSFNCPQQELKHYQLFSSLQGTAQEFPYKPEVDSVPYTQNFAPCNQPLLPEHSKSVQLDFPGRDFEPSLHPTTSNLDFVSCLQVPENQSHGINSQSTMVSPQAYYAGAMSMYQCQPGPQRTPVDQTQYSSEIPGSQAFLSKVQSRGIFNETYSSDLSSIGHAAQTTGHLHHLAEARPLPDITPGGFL

[5] = test system: murine HSCs; conditions: literature report; cited from earlier work
[6] = test system: human progenitor/stem cells; conditions: literature report; cited from earlier work
[7] = purified HSCs treated 15 min, compared to DMSO control

N#CC(C#N)=NNc1ccc(OC(F)(F)F)cc1 [FCCP]
Cai^2+ of HSCs at higher doses ([1]; higher doses of the mitochondrial inhibitors, 15 min): further reduction
Cai^2+ of HSCs [1, 7]: not inhibition of mitochondrial respiration increased

Cc1ccc(N(CC(=O)O)CC(=O)O)c(OCCOc2cc(-c3cc4ccc(C(=O)O)cc4[nH]3)ccc2N(CC(=O)O)CC(=O)O)c1 [Indo-1]
Kd [2]: 237 nM

O=C(O)/C(S)=C/c1ccc(I)cc1 [PD150606, (Z)-3-(4-Iodophenyl)-2-mercapto-2-propenoic acid]
competitive repopulation capacity ([3]; PD150606 25 μM added to high calcium (2.0 mM) 2-week HSC cultures): increased competitive repopulation capacity
competitive repopulation capacity ([3]; PD150606 25 μM added to low calcium (0.02 mM) 2-week HSC cultures): no effect

CC(C)n1cnc2c(NCCc3ccc(O)cc3)nc(-c3csc4ccccc34)nc21 [SR1, stemregenin 1]
inhibition of murine AHR [4]: does not inhibit
expansion of murine HSCs [5]: does not lead to expansion
expansion of human progenitor/stem cells capable of repopulating irradiated immunodeficient mice [6]: led to expansion

O=C(O)CI [iodoacetic acid]
Cai^2+ of HSCs [1]: increased

CC[C@H]1/C=C/C=C/C[C@@H](C)[C@H](O)[C@@](C)(O)C(=O)[C@@H](C)[C@H](O)[C@@H](C)C(=O)[C@@H](C)[C@H](O)[C@@H](C)/C=C/C(=O)O[C@@H]2[C@H](C)[C@H](CC1)O[C@]1(CC[C@H](C)[C@H](C[C@@H](C)O)O1)[C@H]2C [oligomycin]
Cai^2+ of HSCs [1, 7]: not inhibition of mitochondrial respiration increased
